Experiment [1] concerns KRAS G12V mutant NCI-H727 cells. Briefly: Proliferation inhibition of NCI-H727 cells, 3D CellTiter-Glo assay (Method B). It is filed as cell-based, human. The note with it: Method B, 3D culture with 0.65% methylcellulose, 5 days, CTG, read-out: NCI-H727 IC50/nM. The gist of the method:
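Cells grown in 3D medium (RPMI-1640, 10% FBS, 0.65% methylcellulose) overnight, then treated 5 days at 37 °C, 5% CO2 with 9 threefold dilutions from 10 µM top working concentration, duplicate wells. CellTiter-Glo luminescence read; IC50 (nM) fitted by dose-response-inhibition equation.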
Background: In ATP-based viability assays light output follows the ATP content of the culture.

Experiment [2] relates to KRAS G12D mutant AGS cells. Briefly: Proliferation inhibition of AGS cells, CellTiter-Glo assay. In kind it is cell-based, human. The gist of the method:
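AGS cells at 1500 cells/well in F12K + 10% FBS were exposed for 3 days at 37°C to nine 3-fold dilutions from 10 µM top concentration, in duplicate. Viability read by CellTiter-Glo luminescence; IC50 (nM) from dose-response-inhibition fitting.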

The test system of experiment [3] is KRAS G12S mutant A549 cells. The experiment is described as follows: Proliferation inhibition of A549 cells, 3D CellTiter-Glo assay. In kind it is cell-based. The note with it: Homo sapiens, A549, 120 h, read-out: A549 IC50/nM. The procedure:
A549 cells (Nanjing Kebai Biotechnology Co., Ltd., catalog number CBP60084, adherent, culture medium (F12K Nutrient Mixture+10%FBS (GIBCO, Cat#10091-148) at 37°C, 5%CO2, and 95% humidity.
3D Cell Viability Assay: Cells in the logarithmic growth phase were harvested and counted using a platelet counter. Cell viability was assessed using the trypan blue exclusion method to ensure a viability of over 90%. The 3D cell culture medium was prepared by adding 1% MC (methylcellulose, Sigma, Cat#M0512) F-12K medium and 10% FBS. The cell concentration was adjusted to approximately 7407 cells/mL using the 3D medium, and the methylcellulose (MC) content was set to 0.65%. Then, 135 µL of cell suspension was added to each 96-well clear, flat-bottomed, black-walled plate (Greiner, Cat#655096). The cells in the 96-well plates were cultured overnight at 37°C with 5% CO2.
Drug preparation for IC50 assay: A 10-fold drug solution was prepared using culture medium. […] of the drug solution was added to each well of a 96-well plate seeded with cells to achieve a working concentration of up to 10 µM, with a 3× dilution, and 9 concentrations. 2 replicate wells for each drug concentration were set. The cells in the drug-treated 96-well plates were cultured at 37°C and 5% CO^2 for additional5 days, then CTG assay (CellTiter-Glo® Luminescent Cell Viability Assay (Promega, Cat#G7573)) were performed.
The cell plate was equilibrated to room temperature for 30 minutes and the CTG reagent was thawed. 75 µL of CTG solution was added to each well for detection, and the plate was shaken on an orbital shaker for 5 minutes to lyse the cells. The cell plate was placed at room temperature for 25 minutes to stabilize the cryo-luminescence signal and the cryo-luminescence value was read (EnVision® multi-plate reader, PerkinElmer#2105).
Data was analyzed using GraphPad Prism software. The dose-response-inhibition equation was used to fit the data to obtain the dose-response curve, and the IC50 value (nM) was calculated accordingly. [formula]

[4] abbreviates: Homo sapiens, AGS, 72 h, 3 days, CTG, read-out: AGS IC50/nM.

Like-named read-outs stand apart in the source and are kept apart here.

On to `CN1CC[C@H](C(F)F)[C@](C)(COc2nc(N3CCOC[C@@](C)(O)C3)c3cc(C(F)(F)F)c(-c4cccc5sc(N)c(C#N)c45)c(F)c3n2)C1` (atropisomer, axis not shown) [Example 5A, (S)-2-amino-4-(2-(((3S,4S)-4-(difluoromethyl)-1,3-dimethylpiperidine-3-yl)methoxy)-8-fluoro-4-((S)-6-hydroxy-6-methyl-1,4-oxazol-4-yl)-6-(trifluoromethyl)quinazoline-7-yl)benzo[b]thiophene-3-carbonitrile], for which the IC50 is under 1.5 nM in experiment [1] (Homo sapiens, NCI-H727, 120 h); 1.6 nM in experiment [2] (setting [4]); 16.5 nM in experiment [3].

As for `[2H]C([2H])([2H])N1CC/C(=C\F)[C@](C)(COc2nc(N3Cc4cc(C(=O)N(C)C)nn4CC[C@@H]3C)c3cc(CC)c(-c4c(F)ccc5sc(N)c(C#N)c45)c(F)c3n2)C1` (single isomer, unassigned) [Example 173A], the IC50 in experiment [1] (Homo sapiens, NCI-H727, 120 h) is under 1.5 nM; in experiment [2] (setting [4]) it was under 1.5 nM; in experiment [3], 43.5 nM.

As for `CN1CC/C(=C\F)[C@](C)(COc2nc(N3CCCn4nc(C(=O)N(C)C)c(Cl)c4C3)c3cc(C(F)(F)F)c(-c4cccc5sc(N)c(C#N)c45)c(F)c3n2)C1` [Example 124], the IC50 in experiment [1] (Homo sapiens, NCI-H727, 120 h) was 2.2 nM; in experiment [2] (setting [4]), under 1.5 nM; in experiment [3], 23.9 nM.

`C[C@H]1CCn2nc(C(=O)N(C)C)cc2CN1c1nc(OC[C@]2(C)CN(C)CC/C2=C\F)nc2c(F)c(-c3c(F)ccc4sc(N)c(C#N)c34)c(C3CC3)cc12` (single isomer, unassigned) [Example 162A]: the IC50 in experiment [1] (Homo sapiens, NCI-H727, 120 h) was 2.1 nM; in experiment [2] (setting [4]) it was under 1.5 nM; in experiment [3], 82.4 nM.

Consider `CN1CC/C(=C\F)[C@](C)(COc2nc(N3CCCn4nc(C(=O)N(C)C)c(C#N)c4C3)c3cc(C(F)(F)F)c(-c4c(F)ccc5sc(N)c(C#N)c45)c(F)c3n2)C1` [Example 150], for which the IC50 in experiment [1] (Homo sapiens, NCI-H727, 120 h) is under 1.5 nM; in experiment [2] (setting [4]) it was under 1.5 nM; in experiment [3], 40.3 nM.

Turning to `CN1CC/C(=C\F)[C@](C)(COc2nc(N3CCCn4nc(C(=O)N(C)C)cc4C3)c3cc(Cl)c(-c4c(F)ccc5sc(N)c(C#N)c45)c(F)c3n2)C1` (atropisomer, axis not shown; (Ra)) [Example 93A, (Ra)-5-(7-(2-amino-3-cyano-5-fluorobenzo[b]thiophene-4-yl)-6-chloro-8-fluoro-2-(((S,E)-4-(fluoromethylene)-1,3-dimethylpiperidine-3-yl)methoxy)quinazoline-4-yl)-N,N-dimethyl-5,6,7,8-tetrahydro-4H-pyrazolo[1,5-a][1,4]diazepine-2-formamide·formate], the IC50 in experiment [1] was 4.1 nM; in experiment [2] (3 days, CTG, read-out: AGS IC50/nM), under 1.5 nM; in experiment [3], 32.6 nM.

With `CN1CC/C(=C\F)[C@](C)(COc2nc(N3CCCn4nc(C(=O)N(C)C)c(Cl)c4C3)c3cc(C(F)(F)F)c(-c4c(F)ccc5sc(N)c(C#N)c45)c(F)c3n2)C1` [Example 160], the IC50 is under 1.5 nM in experiment [1] (Homo sapiens, NCI-H727, 120 h); under 1.5 nM in experiment [2] (setting [4]); 11.1 nM in experiment [3].

For the molecule `CCc1cc2c(N3Cc4cc(C(=O)N(C)C)nn4CC[C@@H]3C)nc(OC[C@]3(C)CN(CC)CC[C@@H]3C(F)F)nc2c(F)c1-c1c(F)ccc2sc(N)c(C#N)c12` (single isomer, unassigned) [Example 176A], the IC50 in experiment [1] (Homo sapiens, NCI-H727, 120 h) is under 1.5 nM; in experiment [2] (setting [4]) it was under 1.5 nM; in experiment [3], 42.6 nM.

Consider `CCc1cc2c(N3Cc4cc(C(=O)N(C)C)nn4CC[C@@H]3C)nc(OC[C@]3(C)CN(C)CC/C3=C\F)nc2c(F)c1-c1c(F)ccc2sc(N)c(C#N)c12` (single isomer, unassigned) [Example 164A], for which the IC50 in experiment [1] (Homo sapiens, NCI-H727, 120 h) was under 1.5 nM; in experiment [2] (setting [4]), under 1.5 nM; in experiment [3], 48 nM.

On to `C[C@H]1CCn2nc(C(=O)N(C)C)cc2CN1c1nc(OC[C@]2(C)CN(C)CC/C2=C\F)nc2c(F)c(-c3cccc4sc(N)c(C#N)c34)c(C(F)(F)F)cc12` (atropisomer, axis not shown) [Example 123A], for which the IC50 in experiment [1] (Homo sapiens, NCI-H727, 120 h) was under 1.5 nM; in experiment [2] (setting [4]) it was under 1.5 nM; in experiment [3], 33.8 nM.

`CCc1cc2c(N3CCCn4nc(C(=O)N(C)C)c(Cl)c4C3)nc(OC[C@]3(C)CN(C)CC/C3=C\F)nc2c(F)c1-c1c(F)ccc2sc(N)c(C#N)c12` (single isomer, unassigned) [Example 163A]: the IC50 was 3.3 nM in experiment [1] (Homo sapiens, NCI-H727, 120 h); under 1.52 nM in experiment [2] (Homo sapiens, AGS, 72 h, read-out: AGS IC50/nM, 3 days, CTG); 86.9 nM in experiment [3].

Regarding `[2H]C([2H])([2H])N1CC/C(=C\F)[C@](C)(COc2nc(N3CCCn4nc(C(=O)N(C)C)cc4C3)c3cc(C(F)(F)F)c(-c4c(F)ccc5sc(N)c(C#N)c45)c(F)c3n2)C1` (atropisomer, axis not shown) [Example 68A], the IC50 in experiment [1] (Homo sapiens, NCI-H727, 120 h) was 2.4 nM; in experiment [2] (setting [4]) it was under 1.5 nM; in experiment [3], 41.8 nM.

With `CN1CC/C(=C\F)[C@](C)(COc2nc(N3CCCn4nc(C(=O)N(C)C)cc4C3)c3cc(C(F)(F)F)c(-c4c(F)ccc5sc(N)c(C#N)c45)c(F)c3n2)C1` (single isomer, unassigned) [Example 28A], the IC50 in experiment [1] (Homo sapiens, NCI-H727, 120 h) is 1.8 nM; in experiment [2] (setting [4]), under 1.5 nM; in experiment [3] it was 31.2 nM.

On to `[2H]C([2H])([2H])N1CC[C@H](C(F)F)[C@](C)(COc2nc(N3CCOC[C@@](C)(O)C3)c3cc(C(F)(F)F)c(-c4ccc(F)c5sc(N)c(C#N)c45)c(F)c3n2)C1` [Example 55], for which the IC50 was determined as 2.4 nM in experiment [1] (Homo sapiens, NCI-H727, 120 h); 13.1 nM in experiment [2] (setting [4]); 40.7 nM in experiment [3].

For `[2H]C([2H])([2H])N1CC[C@H](C(F)F)[C@](C)(COc2nc(N3CCOC[C@@](C)(O)C3)c3cc(C(F)(F)F)c(-c4c(F)ccc5sc(N)c(C#N)c45)c(F)c3n2)C1` [Example 65A], the IC50 turned out to be 1.5 nM in experiment [2] (setting [4]) and 26.1 nM in experiment [3].

With `CN1CC/C(=C\F)[C@](C)(COc2nc(N3CCOC[C@@](C)(O)C3)c3cc(C(F)(F)F)c(-c4cccc5sc(N)c(C#N)c45)c(F)c3n2)C1` (atropisomer, axis not shown) [Example 6A, (S)-2-amino-4-(8-fluoro-2-(((S,E)-4-(fluoromethylene)-1,3-dimethylpiperidine-3-yl)methoxy)-4-((S)-6-hydroxy-6-methyl-1,4-oxazol-4-yl)-6-(trifluoromethyl)quinazoline-7-yl)benzo[b]thiophene-3-carbonitrile], the IC50 in experiment [1] (Homo sapiens, NCI-H727, 120 h) worked out at 1.6 nM; in experiment [2] (setting [4]), 4.7 nM; in experiment [3], 35.1 nM.

For `CN1CC/C(=C\F)[C@](C)(COc2nc(N3CCCn4nc(C(=O)N(C)C)cc4C3)c3cc(C(F)(F)F)c(-c4cccc5sc(N)c(C#N)c45)c(F)c3n2)C1` (single isomer, unassigned) [Example 8A], the IC50 amounted to 4.4 nM in experiment [1] (Homo sapiens, NCI-H727, 120 h); 1.5 nM in experiment [2] (setting [4]); 101 nM in experiment [3].

As for `CN1CCC(=CF)C(C)(COc2nc(N3CCC(C#N)C(O)C3)c3cc(C(F)(F)F)c(-c4cccc5sc(N)c(C#N)c45)c(F)c3n2)C1` (stereo not shown) [Example 105], the IC50 was 26.9 nM in experiment [1] (Homo sapiens, NCI-H727, 120 h) and 338 nM in experiment [2] (setting [4]).

Take `CN1CC[C@H](C(F)F)[C@](C)(COc2nc(N3CCCn4nc(C(=O)N(C)C)cc4C3)c3cc(C(F)(F)F)c(-c4cccc5sc(N)c(C#N)c45)c(F)c3n2)C1` [Example 7, 5-(7-(2-Amino-3-cyanobenzo[b]thiophene-4-yl)-2-(((3S,4S)-4-(difluoromethyl)-1,3-dimethylpiperidine-3-yl)methoxy)-8-fluoro-6-(trifluoromethyl)quinazoline-4-yl)-N,N-dimethyl-5,6,7,8-tetrahydro-4H-pyrazolo[1,5-a][1,4]diazepine-2-formamide]: the IC50 in experiment [1] (Homo sapiens, NCI-H727, 120 h) was 13.1 nM; in experiment [2] (setting [4]), 6.7 nM.

Take `CCN1CC/C(=C\F)[C@](C)(COc2nc(N3Cc4cc(C(=O)N(C)C)nn4CC[C@@H]3C)c3cc(C(F)(F)F)c(-c4c(F)ccc5sc(N)c(C#N)c45)c(F)c3n2)C1` (single isomer, unassigned) [Example 248A]: the IC50 in experiment [1] (Homo sapiens, NCI-H727, 120 h) was under 1.5 nM; in experiment [2] (setting [4]), under 1.5 nM.

Regarding `CCN1CCC(=CF)C(C)(COc2nc(N3Cc4cc(C(=O)N(C)C)nn4CCC3C)c3cc(Cl)c(-c4c(C#N)c(N)cc(C)c4C(F)(F)F)c(C)c3n2)C1` (stereo not shown) [Example 221], the IC50 in experiment [1] (Homo sapiens, NCI-H727, 120 h) was 71.8 nM; in experiment [2] (setting [4]) it was 103 nM.

Values taken from EP4775577A1, “RAS INHIBITOR” (Tyligand Bioscience (Shanghai) Limited, priority 2023, dated 2025).
